Laboratory results from patent publication US12570638B2, “Fused imidazole derivatives as AHR antagonists” (Sail Biomedicines, Inc., priority 2020, dated 2026).

Tests used:
[1] = Liver Microsome Stability Assay, human; type: in vitro ADME; details: human liver microsomes, with NADPH, 1 μM compound, read-out: Human liver microsome clearance
Experimental: The master solution was prepared according to Table 6.
Two separate experiments were performed as follows.
With Cofactors (NADPH): 25 μL of 10 mM NADPH was added to the incubations. The final concentrations of microsomes and NADPH were 0.5 mg/mL and 1 mM, respectively. The final concentration of microsomes was 0.5 mg/mL. The mixture was pre-warmed at 37° C. for 10 minutes. The reaction was started with the addition of 2.5 μL of 100 μM control compound or test compound solutions. Verapamil was used as positive control in this study. The final concentration of test compound or control compound was 1 μM. The incubation solution was incubated in water batch at 37° C. Aliquots of 25 μL were taken from the reaction solution at 0.5, 5, 15, 30 and 60 minutes. The reaction was stopped by the addition of 5 volumes of cold acetonitrile with IS (200 nM caffeine and 100 nM tolbutamide). Samples were centrifuged at 3, 220 g for 40 minutes. Aliquot of 100 μL of the supernatant was mixed with 100 μL of ultra-pure H2O and then used for LC-MS/MS analysis.
Data Analysis: All calculations were carried out using Microsoft Excel. Peak areas were determined from extracted ion chromatograms. The slope value, k, was determined by linear regression of the natural logarithm of the remaining percentage of the parent drug vs. incubation time curve.
The in vitro half-life (in vitro t1/2) was determined from the slope value: in vitro t1/2=−([…]/k)
Conversion of the in vitro t1/2 (min) into the in vitro intrinsic clearance (in vitro CLint, in μL/min/mg protein) was done using the following equation (mean of duplicate determinations):
The calculations of Scaled-up CLint (mL/min/kg), Predicted CLH (mL/min/kg) and EH were done using the following equation: Scaled-up CLint=(0.693/t1/2)×(1/(microsomal protein concentration(0.5 mg/mL)))×Scaling Factors; Predicted CLH=(QH×Scaled-up CLint×fub)/(QH+Scaled-up CLint×fub); EH=Predicted CLH/QH • where QH is the hepatic blood flow (mL/min/kg) (Table 7), • fub is the fraction of unbound drug in plasma which is assumed to be 1. […]

[2] = Caco-2 Permeability Assay; type: in vitro ADME; details: human; for Papp A→B at 2 h, 1 μM: Caco-2, pH 7.4, apical to basolateral, read-out: Caco2 Papp (AB); for Papp B→A at 2 h, 1 μM: Caco-2, pH 7.4, basolateral to apical, read-out: Caco2 Papp (BA)
Experimental: Preparation of Caco-2 Cells: 50 μL and 25 mL of cell culture medium were added to each well of the Transwell insert and reservoir, respectively. The HTS transwell plates were incubated at 37° C., 5% CO2 for 1 hour before cell seeding. Caco-2 cells were diluted to 6.86×10^5 cells/mL with culture medium and 50 μL of cell suspension were dispensed into the filter well of the 96-well HTS Transwell plate. Cells were cultivated for 14-18 days in a cell culture incubator at 37° C., 5% CO2, 95% relative humidity. Cell culture medium was replaced every other day, beginning no later than 24 hours after initial plating.
Assessment of Cell Monolayer Integrity: Medium was removed from the reservoir and each Transwell insert and replaced with prewarmed fresh culture medium. Transepithelial electrical resistance (TEER) across the monolayer was measured using Millicell Epithelial Volt-Ohm measuring system (Millipore, USA). The Plate was returned to the incubator once the measurement was done. The TEER value was calculated according to the following equation: TEER measurement (ohms)×Area of membrane (cm^2)=TEER value (ohm·cm^2)
TEER value should be greater than 230 ohm·cm^2, which indicates the well-qualified Caco-2 monolayer.
Preparation of Solutions: 2 mM stock solutions in DMSO of control compounds were prepared and diluted with HBSS (10 mM HEPES, pH 7.4) to get 10 μM working solution. 0.2 mM stock solutions of test compounds in DMSO were prepared and diluted with HBSS (10 mM HEPES, pH 7.4 with 0.5% BSA) to get 1 μM working solution. Metoprolol, erythromycin and cimetidine were used as control compounds.
Performing the Drug Transport Assay: The Caco-2 plate was removed from the incubator. The monolayer was washed twice with pre-warmed HBSS (10 mM HEPES, pH 7.4). The plate was incubated at 37° C. for 30 minutes. To determine the rate of drug transport in the apical to basolateral direction, 125 μL of the working solution was added to the Transwell insert (apical compartment). A 50 μL sample was transferred immediately from the apical compartment to 200 μL of acetonitrile containing IS (100 nM alprazolam, 200 nM Caffeine and 100 nM tolbutamide) in a new 96-well plate as the initial donor sample (A-B) and it was vortexed at 1000 rpm for 10 minutes. The wells in the receiver plate (basolateral compartment) were filled with 235 μL of transport buffer. To determine the rate of drug transport in the basolateral to apical direction, 285 μL of the working solution were added to the receiver plate wells (basolateral compartment). […]
Data analysis: All calculations were carried out using Microsoft Excel. Peak areas were determined from extracted ion chromatograms. […]

CLint scaled at 1 μM [1] [mL/min/kg]	Papp A→B at 2 h, 1 μM [2] [×10⁻⁶ cm/s]	Papp B→A at 2 h, 1 μM [2] [×10⁻⁶ cm/s]	SMILES
< 10	> 10	> 10	Cn1nccc1C(=O)Nc1ccc2nc(-c3ccccc3C(F)(F)F)[nH]c2c1 [A, 1-methyl-N-(2-(2-(trifluoromethyl)phenyl)-1H-benzo[d]imidazol-6-yl)-1H-pyrazole-5-carboxamide]
< 10	> 10	> 10	Cn1ncnc1C(=O)Nc1ccc2nc(-c3ccccc3C(F)(F)F)[nH]c2c1 [Compound H, 1-methyl-N-(2-(2-(trifluoromethyl)phenyl)-1H-benzo[d]imidazol-6-yl)-1H-1,2,4-triazole-5-carboxamide]
